Values joined by “and” are separate entries in the source; they are usually repeats but may differ in a detail not shown here. Identical values can stand only once. Like-named read-outs stand apart in the source and are kept apart here.
Experiments:
[1] = test system: Acinetobacter baumannii ATCC 19606 type strain; assay: CO-ADD antibacterial MIC assay; format: cell-based
Experimental: (§1) For the all the bacterial assays, each bacterial strain was cultured in cation-adjusted Mueller Hinton broth (CAMHB; Bacto Laboratories 212322) at 37 °C overnight. A sample of each culture was then diluted 40-fold in fresh CAMHB and incubated at 37 °C for 1.5–3 h. The resultant mid-log phase cultures were diluted with CAMHB (CFU/mL measured by OD600) and then added to each well of the compound-containing plates (384-well non-binding surface (NBS) plates; Corning CLS3640), giving a cell density of 5 × 10^5 CFU/mL and a total volume of 50 μL. Plates were covered and incubated at 37 °C for 18 h without shaking. Inhibition of bacterial growth was determined by measuring the absorbance at 600 nm (OD600) using media only as negative control and bacteria without inhibitors as positive control. MIC values were determined as the lowest concentration at which the growth was inhibited by ≥80% (equivalent to no visible growth by the eye). Colistin sulfate (Sigma C4461) and vancomycin HCl (Sigma 861987) were used as internal controls on each plate for Gram-negative and Gram-positive bacteria, respectively. All compounds were tested as two technical replicates in two independent biological assays, n = 4 final data.

[2] = test system: Escherichia coli ATCC 25922 FDA control strain; assay: CO-ADD antibacterial MIC assay; format: cell-based
Experimental: as §1

[3] = test system: Pseudomonas aeruginosa ATCC 27853 QC control strain; assay: CO-ADD antibacterial MIC assay; format: cell-based
Experimental: as §1

[4] = test system: methicillin-resistant Staphylococcus aureus ATCC 43300; assay: CO-ADD antibacterial MIC assay; format: cell-based
Experimental: as §1

[5] = test system: Candida albicans ATCC 90028 NCCLS11; assay: Antifungal MIC assay; format: cell-based; conditions: for MIC: Candida albicans, ATCC90028, comparator antifungals, read-out: MIC* Candida albicans ATCC 90028
Experimental: For the fungal assays, both fungi (yeast) strains were cultured for 3 days on Yeast Extract-Peptone Dextrose (YPD; Becton Dickinson 242720) agar at 30 °C. A yeast suspension of 1 × 10^6 to 5 × 10^6 CFU/mL (as determined by OD530) was prepared from five colonies from the agar plates, subsequently diluted with Yeast Nitrogen Base media (YNB; Becton Dickinson 233520), and added to each well of the compound containing plates (384-well plates, NBS; Corning CLS3640), giving a final cell density of 2.5 × 10^3 CFU/mL and a total volume of 50 μL. Plates were covered and incubated at 35 °C for 36 h without shaking. […] […], equivalent to ″optically clear-to-slightly hazy″ or MIC score of 0–1 as per CLSI guidelines M27 Reference Method for Broth Dilution Antifungal Susceptibility Testing of Yeasts. […] Fluconazole (Sigma F8929) was used as internal control on each plate for all strains. All compounds were tested as two technical replicates in two to four independent biological assays, n = 4–8 final data.

[6] = test system: Cryptococcus neoformans H99 ATCC 208821 type strain; assay: Antifungal MIC assay; format: cell-based; conditions: for MIC: Cryptococcus neoformans, ATCC208821, read-out: MIC* Cryptococcus neoformans ATCC 208821
Experimental: For the fungal assays, both fungi (yeast) strains were cultured for 3 days on Yeast Extract-Peptone Dextrose (YPD; Becton Dickinson 242720) agar at 30 °C. A yeast suspension of 1 × 10^6 to 5 × 10^6 CFU/mL (as determined by OD530) was prepared from five colonies from the agar plates, subsequently diluted with Yeast Nitrogen Base media (YNB; Becton Dickinson 233520), and added to each well of the compound containing plates (384-well plates, NBS; Corning CLS3640), giving a final cell density of 2.5 × 10^3 CFU/mL and a total volume of 50 μL. Plates were covered and incubated at 35 °C for 36 h without shaking. […] MIC values were recorded as the lowest concentration at which the growth was inhibited by ≥80%, equivalent to ″optically clear-to-slightly hazy″ or MIC score of 0–1 as per CLSI guidelines M27 Reference Method for Broth Dilution Antifungal Susceptibility Testing of Yeasts. […] Fluconazole (Sigma F8929) was used as internal control on each plate for all strains. All compounds were tested as two technical replicates in two to four independent biological assays, n = 4–8 final data.

[7] = test system: HEK-293 human embryonic kidney cells ATCC CRL-1573
Experimental: The cells were incubated together with the compounds for 20 h at 37 °C in 5% CO2. […] Tamoxifen (Sigma T5648) was used as internal control on each plate.

human red blood cells = format: cell-based; conditions: initial CO-ADD screening, 1 h; 10% hemolysis
Experimental: Human whole blood (Australian Red Cross) was washed three times with 3 vol of 0.9% NaCl and resuspended in a concentration of 0.5 × 10^8 cells/mL, determined by a manual cell count in a Neubauer hemocytometer. […] After incubation, the plates were centrifuged at 1000g for 10 min to pellet cells and debris; 25 μL of the supernatant was then transferred to reading plates (384-well, polystyrene plated (PS), Corning CLS3680), with hemolysis determined by measuring the supernatant absorbance at […] (OD405) using cells without inhibitors as negative control and cells with 1% Triton X-100 (Sigma T8787) as positive control. […] Melittin (Sigma M2272) was used as internal control on each plate.

[8] = test system: Candida auris CBS10913 JCM 15448; assay: Antifungal MIC assay, extended panel; format: cell-based; conditions: Candidozyma auris, comparator antifungals, read-out: MIC* Candida auris CBS10913
Experimental: (§2) For the fungal assays, both fungi (yeast) strains were cultured for 3 days on Yeast Extract-Peptone Dextrose (YPD; Becton Dickinson 242720) agar at 30 °C. A yeast suspension of 1 × 10^6 to 5 × 10^6 CFU/mL (as determined by OD530) was prepared from five colonies from the agar plates, subsequently diluted with Yeast Nitrogen Base media (YNB; Becton Dickinson 233520), and added to each well of the compound containing plates (384-well plates, NBS; Corning CLS3640), giving a final cell density of 2.5 × 10^3 CFU/mL and a total volume of 50 μL. Plates were covered and incubated at 35 °C for 36 h without shaking. […] MIC […] Reference Method for Broth Dilution Antifungal Susceptibility Testing of Yeasts. […] Fluconazole (Sigma F8929) was used as internal control on each plate for all strains. All compounds were tested as two technical replicates in two to four independent biological assays, n = 4–8 final data.

[9] = test system: Candida auris CBS12373 KCTC 17810; assay: Antifungal MIC assay, extended panel; format: cell-based; conditions: Candidozyma auris, comparator antifungals, read-out: MIC* Candida auris CBS12373
Experimental: as §2

[10] = initial CO-ADD dose-response screening, ≥80% growth inhibition
[11] = single concentration (32 µg/mL) CO-ADD Primary Screening, no inhibition, no dose-response
[12] = ≥80% inhibition, converted with MW of Table S12

Cc1cccc(C2(c3ccccc3)[C]([Au-][Cl])=C(C(C)(C)C)c3cccc(C)[n+]32)n1 (stereo not shown) [Au-S15]
MIC Ab [1, 10]: 32 µg/mL
MIC Ec [2, 10]: > 32 µg/mL
MIC Pa [3, 10]: 32 µg/mL
MIC MRSA (Sa) [4, 10]: 2 µg/mL
MIC Ca [5, 10]: <= 0.25 μg/mL
MIC Cn [6, 10]: <= 0.25 μg/mL
HEK CC50 ([7]; initial CO-ADD screening, 20 h): > 32 µg/mL
RBC HC10 (human red blood cells): > 32 µg/mL

FC(F)(F)c1ccnc([S][Au][PH](c2ccco2)(c2ccco2)c2ccco2)n1 [Au-S3]
MIC MRSA (Sa) [4, 10]: 0.25 µg/mL

c1ccc([S][Au][PH](c2ccco2)(c2ccco2)c2ccco2)nc1 [Au-S1]
MIC MRSA (Sa) [4, 10]: 16 µg/mL
MIC Ca [5, 10]: 16 µg/mL
MIC Cn [6, 10]: 16 µg/mL

Cc1cccc2[n+]1[Pd-2]([Cl])([Cl])[n+]1c(C)cccc1C(C(C)(C)C)=C=C2c1ccccc1 [HM_C2]
MIC Ab [1, 10]: 32 µg/mL
MIC Ec [2, 10]: > 32 µg/mL
MIC Pa [3, 10]: > 32 µg/mL
MIC MRSA (Sa) [4, 10]: <= 0.25 μg/mL
MIC Ca [5, 10]: <= 0.25 μg/mL
MIC Cn [6, 10]: <= 0.25 μg/mL
HEK CC50 ([7]; initial CO-ADD screening, 20 h): 1.1 µg/mL
RBC HC10 (human red blood cells): > 32 µg/mL

Cc1cccc2[n+]1[Au-]([Cl])([Cl])[n+]1c(C)cccc1C(c1ccccc1)=C=C2c1ccccc1.[Cl-] [Au-S11]
MIC Ab [1, 10]: > 32 µg/mL
MIC Ec [2, 10]: 32 µg/mL
MIC Pa [3, 10]: > 32 µg/mL
MIC MRSA (Sa) [4, 10]: 16 µg/mL
MIC Ca [5, 10]: 4 µg/mL
MIC Cn [6, 10]: 16 µg/mL
HEK CC50 ([7]; initial CO-ADD screening, 20 h): > 32 µg/mL
RBC HC10 (human red blood cells): > 32 µg/mL

Cc1cccc(C2(c3ccccc3)[C]([Au-][Cl])=C(c3ccccc3)c3cccc(C)[n+]32)n1 (stereo not shown) [Au-S14]
MIC Ab [1, 10]: 32 µg/mL
MIC Ec [2, 10]: > 32 µg/mL
MIC Pa [3, 10]: > 32 µg/mL
MIC MRSA (Sa) [4, 10]: <= 0.25 μg/mL
MIC Ca [5, 10]: <= 0.25 μg/mL
MIC Cn [6, 10]: <= 0.25 μg/mL
HEK CC50 ([7]; initial CO-ADD screening, 20 h): 0.7 µg/mL
RBC HC10 (human red blood cells): 23.7 µg/mL

Nc1cc2cccnc2c2ncccc12.O=C([O][Eu]([O]C(=O)c1ccccc1F)[O]C(=O)c1ccccc1F)c1ccccc1F [Eu-S4]
MIC Ab [1, 10]: > 20 µM
MIC Ec [2, 10]: > 20 µM
MIC Pa [3, 10]: > 20 µM
MIC MRSA (Sa) [4, 10]: > 20 µM
MIC Ca [5, 10]: > 20 µM
MIC Cn [6, 10]: 20 µM
CC50 ([7]; read-out: HEK CC50, initial CO-ADD screening, 20 h): 3.3 µM
RBC HC10 (human red blood cells): 1.2 µM

COc1ccc(/C=C/C2=NN(c3ccc(C(=O)O)cc3)C(c3ccc(OC)c(OC)c3)C2)cc1OC (racemic) [Ligand-Ag1]
MIC Ab [1, 11]: > 32 µg/mL
MIC Ec [2, 11]: > 32 µg/mL
MIC Pa [3, 11]: > 32 µg/mL
MIC MRSA (Sa) [4, 11]: > 32 µg/mL
MIC Ca [5, 11]: > 32 µg/mL
MIC Cn [6, 11]: > 32 µg/mL

O=[N+]([O-])[O-].[Ag+] [AgNO3, reference compound]
MIC Ab [1, 10]: 0.25 µg/mL
MIC Ec [2, 10]: 0.25 µg/mL
MIC Pa [3, 10]: 0.25 µg/mL
MIC MRSA (Sa) [4, 10]: 2 µg/mL
MIC Ca [5, 10]: 0.25 µg/mL
MIC Cn [6, 10]: 0.25 µg/mL
HEK CC50 ([7]; initial CO-ADD screening, 20 h): > 32 µg/mL
RBC HC10 (human red blood cells): 8.9 µg/mL

Cc1ccnc([S][Au][PH](c2ccco2)(c2ccco2)c2ccco2)n1 [Au-S2]
HEK CC50 ([7]; initial CO-ADD screening, 20 h): 1.38 µg/mL

CC(=O)N1CCN(c2ccc(OCC3COC(Cn4ccnc4)(c4ccc(Cl)cc4Cl)O3)cc2)CC1 (stereo not shown) [Ketoconazole, reference compound]
MIC ([5]; MIC = ≥80% inhibition): 2 to 4 ng/mL
MIC [5, 12]: 0.005 to 0.01 µM
MIC [6]: > 64 µg/mL and > 170 µM
MIC ([8]; MIC = ≥80% inhibition): 4 to 16 ng/mL
MIC [8, 12]: 0.01 to 0.042 µM
MIC ([9]; MIC = ≥80% inhibition): ≤ 0.004 µg/mL
MIC [9, 12]: ≤ 0.01 µM

FC(F)(F)c1ccnc([S][Au][PH](c2ccccc2)(c2ccccc2)c2ccccc2)n1 [Au-S6]
MIC MRSA (Sa) [4, 10]: 0.25 µg/mL

CC1=C(C)C(C)C(c2ccc(-c3ccccc3)cc2)=C1C.Cc1ccccc1NC1=[N][Ir]([Cl])[NH]C(NS(=O)(=O)c2ccc([N+](=O)[O-])cc2)=N1 [Ir2]
CC50 ([7]; read-out: HEK293 CC50, ranges obtained upon retesting, new batch): 62 to 65 µM

O=C(O)c1ccc(N2N=C(/C=C/C=C/c3ccccc3)CC2/C=C/c2ccccc2)cc1 (racemic) [Ligand-Ag2]
MIC Ab [1, 11]: > 32 µg/mL
MIC Ec [2, 11]: > 32 µg/mL
MIC Pa [3, 11]: > 32 µg/mL
MIC MRSA (Sa) [4, 11]: > 32 µg/mL
MIC Ca [5, 11]: > 32 µg/mL
MIC Cn [6, 11]: > 32 µg/mL

Cn1ccn(Cc2ccccc2)[c]1=[Au]1[S][Mo]2([S]1)[S][Au](=[c]1n(C)ccn1Cc1ccccc1)[S]2 (stereo not shown) [Au-S10]
MIC Ca [5, 10]: 0.25 µg/mL

O=C(O)c1ccc(N2N=C(/C=C/c3ccccc3)CC2c2ccccc2)cc1 (racemic) [Ligand-Ag3]
MIC Ab [1, 11]: > 32 µg/mL
MIC Ec [2, 11]: > 32 µg/mL
MIC Pa [3, 11]: > 32 µg/mL
MIC MRSA (Sa) [4, 11]: > 32 µg/mL
MIC Ca [5, 11]: > 32 µg/mL
MIC Cn [6, 11]: > 32 µg/mL

C[C@@H](c1ncncc1F)[C@](O)(Cn1cncn1)c1ccc(F)cc1F [Voriconazole, reference compound]
MIC ([5]; MIC = ≥80% inhibition): 8 ng/mL
MIC [5, 12]: 0.032 µM
MIC [6]: ≥ 64 µg/mL and ≥ 260 µM
MIC ([8]; MIC = ≥80% inhibition): 4 to 8 ng/mL
MIC [8, 12]: 0.016 to 0.032 µM
MIC ([9]; MIC = ≥80% inhibition): 0.156 µg/mL
MIC [9, 12]: 0.447 µM
